Measured values: patent US20100137315A1, “Sphingosine Kinase Inhibitors and Methods of Their Use” (APOGEE BIOTECHNOLOGY CORPORATION, priority 2005, published 2010)
Read-outs that look alike come from different tables or passages of the source.

What was measured:
[1] = molecular target: CHK1 (Homo sapiens, UniProt O14757); test: Kinase selectivity panel; assay type: biochemical; details: read-out: percent of control activity of CHK1
Method: (§1) A common problem with previous attempts to develop protein kinase inhibitors is the lack of selectivity toward the target kinase since the majority of these compounds interact with nucleotide-binding domains that are highly conserved among kinases. To determine if compound of this invention are non-selective kinase inhibitors, the effects of the SK inhibitor, Compound 73, on a diverse panel of 20 purified kinases was determined. The compound was tested at a single concentration of 50 μM.

[2] = molecular target: Ca^2+/calmodulin PK IV (Homo sapiens, UniProt Q16566); test: Kinase selectivity panel; assay type: biochemical; details: read-out: percent of control activity of Ca^2+/calmodulin PK IV
Method: as §1

[3] = system: MCF-7 human breast adenocarcinoma cells; test: Cytotoxicity, SRB assay, 48 h; assay type: cell-based; details: Homo sapiens, MCF7
Method: (§2) To further assess the biological efficacies of the Compounds in intact cells, each Compound was evaluated for cytotoxicity using human cancer cell lines. These experiments followed methods that have been extensively used. Cell lines tested included MCF-7 human breast adenocarcinoma cells. The indicated cell lines were treated with varying doses of the test Compound for 48 h. Cell survival was then determined using the SRB binding assay (Skehan et al., 1990, J Natl Cancer Inst 82: 1107), and the concentration of compound that inhibited proliferation by 50% (the IC50) was calculated. Values (in μM) represent the mean±sd for replicate trials.

[4] = system: Caco-2 (colon); test: Cytotoxicity, sulforhodamine B, 48 h; assay type: cell-based; details: Homo sapiens, mean ± sd
[5] = system: Hep-G2 (liver); test: Cytotoxicity, sulforhodamine B, 48 h; assay type: cell-based; details: Homo sapiens, HepG2, mean ± sd
[6] = system: 1025LU (Melanoma); test: Cytotoxicity, sulforhodamine B, 48 h; assay type: cell-based; details: Homo sapiens, mean ± sd
Method: as §2

[7] = system: A-498 (Kidney); test: Cytotoxicity, sulforhodamine B, 48 h; assay type: cell-based; details: Homo sapiens, A498, mean ± sd
Method: as §2

[8] = system: DU145 (prostate); test: Cytotoxicity, sulforhodamine B, 48 h; assay type: cell-based; details: Homo sapiens, DU-145, mean ± sd
Method: as §2

[9] = system: HT-29 (colon); test: Cytotoxicity, sulforhodamine B, 48 h; assay type: cell-based; details: Homo sapiens, mean ± sd
Method: as §2

[10] = system: MDA-MB-231 (breast, ER−); test: Cytotoxicity, sulforhodamine B, 48 h; assay type: cell-based; details: Homo sapiens, mean ± sd
Method: as §2

[11] = system: SK-OV-3 (ovary); test: Cytotoxicity, sulforhodamine B, 48 h; assay type: cell-based; details: Homo sapiens, mean ± sd
Method: as §2

[12] = system: Panc-1 (pancreas); test: Cytotoxicity, sulforhodamine B, 48 h; assay type: cell-based; details: Homo sapiens, mean ± sd
[13] = system: T24 (bladder); test: Cytotoxicity, sulforhodamine B, 48 h; assay type: cell-based; details: Homo sapiens, mean ± sd
[14] = physchem; assay type: physicochemical; details: aqueous with cosolvent or surfactant or cyclodextrin, in DMSO: PBS (IP) or PEG400 (oral)
[15] = system: female Swiss-Webster mice; test: In vivo toxicity in mice; details: orally up to at least 100 mg/kg
[16] = system: JC murine adenocarcinoma cells in Balb/c mice; test: JC mammary adenocarcinoma syngeneic tumor model; assay type: in vivo; details: for inhibition of tumor growth relative to controls: 50 mg/kg IP every-other day, Balb/c mice; for In vivo activity: JC tumor model, intraperitoneal (ip) or oral (po)
Method: FIG. 1. Inhibition of tumor growth by SK inhibitors. Balb/c female mice were injected subcutaneously with JC murine adenocarcinoma cells suspended in PBS. After palpable tumor growth, animals were treated by intraperitoneal injection of either 0.1 mL of 50% DMSO (control, circles) or 50 mg/kg of Compound 8 (squares) or Compound 73 (triangles) on odd numbered days. Whole body weight and tumor volume measurement were performed for up to 18 days. * p<0.05. Inset: Averaged body weights of mice from each group during course of study.
FIG. 2. Dose-response relationships for inhibition of tumor growth by Compound 8. Balb/c female mice were injected subcutaneously with JC cells suspended in PBS. After palpable tumor growth, animals were treated by oral gavage of either 100 μl of PEG400 (control, circles) or Compound 8 at 3.5 mg/kg (diamonds), 10 mg/kg (inverted triangles), 35 mg/kg (triangles) or 100 mg/kg (squares) on odd numbered days. Whole body weight and tumor volume measurement were performed for up to 18 days.
The SK inhibitors Compounds 8 and 73 were dissolved in 50% DMSO and administered by intraperitoneal injection to mice every-other day at a dose of 50 mg/kg. Body weights and tumor volumes were monitored daily.

[17] = system: female DBA/1 mice; test: Collagen-Induced Arthritis model; assay type: in vivo, mouse; details: 50 mg/kg orally
Method: FIG. 10. Effects of Compound 8 on disease progression in the collagen-induced arthritis (CIA) model in mice. Female DBA/1 mice were injected with collagen, boosted after 3 weeks and then monitored for symptoms of arthritis. Upon disease manifestation, groups of mice were treated for 12 days as follows: (▴) Compound 8 (50 mg/kg given orally each day for 6 days per week); or (▪) vehicle (PEG400 given under the same schedule). On the indicated Day of treatment, the average clinical score (A) and the average hind paw diameter (B) was determined. * p<0.05 versus PEG400 alone group.
The anti-arthritis activities of the SK inhibitor Compound 8 were assessed in the Collagen-Induced Arthritis model. Female DBA/1 mice were injected subcutaneously in the tail with chicken immunization-grade type II collagen emulsified in complete Freund's adjuvant at 2 mg/mL. Three weeks later, the mice received a collagen booster in incomplete Freund's adjuvant and were monitored daily thereafter for arthritic symptoms. Once mice reached a threshold paw thickness and clinical score, they were randomized into the following treatment groups: Compound 8 (50 mg/kg given orally each day for 6 days per week) or vehicle (Polyethyleneglycol 400 given under the same schedule). The severity of disease in each animal was quantified by measurement of the hind paw volume with digital calipers. Each paw was scored based upon perceived inflammatory activity, in which each paw receives a score of 0-3 as follows: 0=normal; 1=mild, but definite redness and swelling of the ankle or wrist, or apparent redness and swelling limited to individual digits, regardless of the number of affected digits; 2=moderate redness and swelling of the ankle and wrist and 3=severe redness and swelling of the entire paw including digits, with an overall score ranging from 0-12. Differences among treatment groups were tested using ANOVA.
On Day 12, the mice were euthanized and their hind limbs were removed, stripped of skin and muscle, formalin-fixed, decalcified and paraffin-embedded. The limbs were then sectioned and stained with hematoxylin/eosin. Tibiotarsal joints were evaluated histologically for severity of inflammation and synovial hyperplasia.

[18] = Table 6, 48 h, SRB, inhibition of cell proliferation, read-out: MCF-7 IC50
[19] = Table 7, 48 hours, mean ± sd, read-out: IC50 (μM) MCF-7

Sequence of CHK1 (O14757 whole entry, species assumed, the tested form may be a part): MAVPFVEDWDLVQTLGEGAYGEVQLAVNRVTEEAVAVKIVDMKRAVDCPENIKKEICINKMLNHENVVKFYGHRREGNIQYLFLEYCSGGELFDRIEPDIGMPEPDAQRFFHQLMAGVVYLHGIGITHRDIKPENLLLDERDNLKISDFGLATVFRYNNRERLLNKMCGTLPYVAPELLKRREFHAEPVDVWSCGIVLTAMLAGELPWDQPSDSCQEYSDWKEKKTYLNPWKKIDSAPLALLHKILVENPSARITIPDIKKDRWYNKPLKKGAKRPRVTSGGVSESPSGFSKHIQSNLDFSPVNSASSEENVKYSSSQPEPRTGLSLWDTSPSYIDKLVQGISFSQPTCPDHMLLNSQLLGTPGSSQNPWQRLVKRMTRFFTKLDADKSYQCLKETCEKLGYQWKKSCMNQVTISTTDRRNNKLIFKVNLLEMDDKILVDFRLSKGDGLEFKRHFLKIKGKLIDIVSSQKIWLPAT

SMILES	IC50 [3, 18] [µM]	IC50 [3, 19] [µM]	IC50 [4] [µM]	IC50 [5] [µM]	IC50 [6] [µM]	IC50 [7] [µM]	IC50 [8] [µM]	IC50 [9] [µM]	IC50 [10] [µM]	IC50 [11] [µM]	IC50 [12] [µM]	IC50 [13] [µM]	solubility ([14]; read-out: solubility) [mg/mL]	solubility ([14]; read-out: solubility (molar)) [mM]	toxicity, oral administration [15]	inhibition of tumor growth relative to controls [16] [%]	In vivo activity [16]	further results
Clc1ccc(-c2csc(NCc3ccccc3)n2)cc1 [Compound 73, Benzyl-[4-(4-chloro-phenyl)-thiazol-2-yl]-amine]	8.3	1.8 ± 0.7	6.3 ± 5.2	13.8 ± 8.7	8.3 ± 2.4	4 ± 1.9	6.5 ± 3.6	29.9 ± 9.4	26.6 ± 6.7	10.2 ± 0.3	6.7 ± 2.4	22.7 ± 4.8	≥ 15	30 to 40	without noticeable toxicity	69	active - ip	remaining activity at 50 µM [1]: 124%; remaining activity at 50 µM [2]: 113 ± 3%
CCCC(=O)Oc1ccc(C=CC(=O)Nc2nc(-c3ccc(Cl)cc3)cs2)cc1OC [Compound 8, Butyric acid 4-{2-[4-(4-chloro-phenyl)-thiazol-2-ylcarbamoyl]-vinyl}-2-methoxy-phenyl ester]	6.6	25.2 ± 4.7	2.6 ± 1.2	81.5 ± 38.9	30.1 ± 3.9	38.3 ± 7.7	21.2 ± 1.3	54.7 ± 0.1	30.1 ± 3.9	23.7 ± 3.2	19 ± 2.5	25.2 ± 2.9	≥ 15	30 to 40	without noticeable toxicity	66	active - ip and po	oral doses with antitumor activity ([16]; oral gavage 3.5-100 mg/kg on odd numbered days): ≥ 10 mg/kg; toxicity to the mice in the dose-response study ([16]; oral, any dose (3.5-100 mg/kg)): No toxicity; reduction in clinical score vs vehicle ([17]; 6 days per week, Day 12): 65%; reduction in the increase in hind paw thickness vs vehicle ([17]; 6 days per week, Day 12): 72%; histologic damage of tibiotarsal joints ([17]; Day 12): significantly reduced; inflammation response (Average Clinical Score, Average Hind Paw Diameter) ([17]; significant decreases beginning at Day 4): dramatically slowed
